US10953032B2, “Cyclic dinucleotides as anticancer agents” (BRISTOL-MYERS SQUIBB COMPANY, priority 2017, dated 2021)
Like-named read-outs stand apart in the source and are kept apart here.

Assays:
IRF3 = assay: STING THP1 Reporter Assay, IRF pathway (secreted Lucia luciferase); type: cell-based; details: THP1-Dual cells, 10% human plasma, luciferase readout, 100% activation = 100 μM cGAMP, read-out: THP1 Reporter Assays EC50 (μM) IRF3
Description: (§1) THP1-Dual™ cells were derived from the human THP-1 monocyte cell line by stable integration of two inducible reporter constructs. To this end, THP1-Dual™ cells allow the simultaneous study of the NF-κB pathway, by monitoring the activity of SEAP, and the IRF pathway by assessing the activity of a secreted luciferase (Lucia). Both reporter proteins are readily measurable in the cell culture supernatant when using QUANTI-Blue™, a SEAP detection reagent, and QUANTI-Luc™, a luciferase detection reagent.
(§2) THP 1-Dual™ cells induce the activation of NF-κB in response to STING agonists. They also trigger the IRF pathway upon stimulation with STING agonists, such as cGAMP. Here, the THP-1-Dual cells were used to assess STING binders for function on the cellular level.
(§3) Serial dilutions of compounds in DMSO were added to low volume 384 well plates at 100 nl/well using an ECHO acoustic dispenser (Labcyte, model 550) to achieve final starting concentration of 100 μM in cell suspension. THP-1 Dual™ STING reporter cells (Invivogen, Dual cells cat #THPD-nfis) were added to the plates with compounds at 15,000 cells in 10 μL per well in RPMI media (Gibco, cat #11875) containing 10% human plasma in a low volume 384-well black wall clear bottom tissue culture plate (Corning, cat #3542) for SEAP assay and low volume solid white plate (Corning, cat #3826) for luciferase assay. One column of the plate was reserved for treatment with cGAMP at 100 μM for 100% activation calculation and one column for no treatment (DMSO only) for baseline activation. Plates were then incubated in 37° C. incubator at 5% CO2 for 20 hours.
(§4) In the SEAP assay, […] 2× QuantiBlue (Invivogen, cat #Rep-qb2) is added to 384 well black plates seeded with THP1 cells and incubated at 37° C. for 2 hours. Plates were read on the Envision (Perkin Elmer) at 620 nm wavelength (OD620). In the luciferase assay, 5 μl of Quantiluc (Invivogen, Rep-qlc2) is added to white 384 well plates seeded with THP1 cells and read at 5 minutes on the Envision (Perkin Elmer) using a luminescence protocol (RLU). For both cell lines, 100% activation was determined by value (RLU) of THP-1 Dual STING cells stimulated with 100 μM cGAMP (Invivogen, cat #TLRL-NACGA23-5).

NFkB = assay: STING THP1 Reporter Assay, NF-κB pathway (SEAP); type: cell-based; details: THP1-Dual cells, 10% human plasma, SEAP readout (OD620), 100% activation = 100 μM cGAMP, read-out: THP1 Reporter Assays EC50 (μM) NFkB
Description: as §1, §2, §3, §4

[1] = target: T1, STING WT: His-TVMV-S-hSTING(155-341)-H232R (Homo sapiens, UniProt Q86WV6, H232R); assay: STING HTRF Binding Assay (time resolved FRET competition), STING WT; details: 20 nM His-tagged STING cytoplasmic domain WT, 200 nM fluorescein-labeled cGAMP analog probe, one hour; read-out: HTRF Binding Assays EC50 (μM) STING WT
T1 construct: STING WT: His-TVMV-S-hSTING(155-341)-H232R
Protocol: (§5) A time resolved FRET-based competition binding assay was used to assess test article binding to STING WT and STING AQ. His-tagged STING cytoplasmic domain (WT or AQ) at a concentration of 20 nM was incubated with 2.5 nM Tb-labeled anti-His antibody, test compound, and fluorescein-labeled cGAMP analog probe (BioLog cat. no. C195) at a concentration of 200 nM (STING WT) or 40 nM (STING AQ) in PBS containing 0.005% Tween-20 and 0.1% BSA for one hour. Fluorescence at 495 nm and 520 nm was measured using an EnVision microplate reader to quantify FRET between Tb-labeled anti-His antibody and fluorescein-labeled probe. Background was defined as the signal obtained in the absence of STING protein, and background subtracted FRET ratios were normalized to the maximum signal obtained in the absence of test compound. These values were converted to a percent inhibition. Percent inhibition was determined for test compounds at 11 concentrations. The IC50, defined as the concentration of competing test compound needed to reduce specific binding of the probe by 50%, was calculated using the 4 parameter logistic equation to fit the data

[2] = target: T2, STING AQ: His-TVMV-S-hSTING(155-341)-G230A-R293Q (Homo sapiens, UniProt Q86WV6, G230A/H232R/R293Q); assay: STING HTRF Binding Assay (time resolved FRET competition), STING AQ; details: 20 nM His-tagged STING cytoplasmic domain AQ, 40 nM fluorescein-labeled cGAMP analog probe, one hour; read-out: HTRF Binding Assays EC50 (μM) STING AQ
T2 construct: STING AQ: His-TVMV-S-hSTING(155-341)-G230A-R293Q
Protocol: as §5

T1 sequence (Q86WV6 with tags, fused parts or gaps H232R): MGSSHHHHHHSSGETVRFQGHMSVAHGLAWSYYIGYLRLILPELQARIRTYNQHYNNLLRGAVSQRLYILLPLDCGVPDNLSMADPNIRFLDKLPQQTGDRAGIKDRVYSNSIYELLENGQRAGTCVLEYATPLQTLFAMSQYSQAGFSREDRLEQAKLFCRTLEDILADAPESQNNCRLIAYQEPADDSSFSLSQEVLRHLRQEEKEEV
T2 sequence (Q86WV6 with tags, fused parts or gaps G230A/H232R/R293Q): as the sequence (Q86WV6 with tags, fused parts or gaps H232R) above, with G99A, R162Q counted along it

EC50 (IRF3; 20 hours) [µM]	EC50 (NFkB; 20 hours) [µM]	EC50 [1] [µM]	EC50 [2] [µM]	EC50 (IRF3; Homo sapiens, THP-1, 20 h) [µM]	EC50 (NFkB; Homo sapiens, THP-1, 20 h) [µM]	SMILES
12	27	0.03	0.006	–	–	Nc1ncnc2c1ncn2[C@@H]1O[C@@H]2COP(=O)(S)O[C@@H]3[C@H](O)[C@@H](COP(=O)(S)O[C@H]2[C@H]1F)O[C@H]3n1cnc2c(=O)[nH]c3nccn3c21 (single isomer, unassigned) [Example 1-3]
1	3	0.003	< 0.001	–	–	Nc1ncnc2c1ncn2[C@@H]1O[C@@H]2COP(=O)(S)O[C@@H]3[C@H](O)[C@@H](COP(=O)(S)O[C@H]2[C@H]1F)O[C@H]3n1cnc2c(=O)[nH]c3nccn3c21 (single isomer, unassigned) [Example 1-4]

Second part, the compound before the results:

SMILES	EC50 (IRF3; 20 hours) [µM]	EC50 (NFkB; 20 hours) [µM]	EC50 [1] [µM]	EC50 [2] [µM]	EC50 (IRF3; Homo sapiens, THP-1, 20 h) [µM]	EC50 (NFkB; Homo sapiens, THP-1, 20 h) [µM]
Nc1ncnc2c1ncn2[C@@H]1O[C@@H]2COP(=O)(S)O[C@@H]3[C@H](O)[C@@H](COP(=O)(S)O[C@H]2[C@H]1F)O[C@H]3n1cnc2c(=O)[nH]c3nccn3c21 (single isomer, unassigned) [Example 1-1]	> 100	> 100	0.19	0.07	–	–
Nc1ncnc2c1ncn2[C@@H]1O[C@@H]2COP(=O)(S)O[C@@H]3[C@H](O)[C@@H](COP(=O)(S)O[C@H]2[C@H]1F)O[C@H]3n1cnc2c(=O)[nH]c3nccn3c21 (single isomer, unassigned) [Example 1-2]	10	21	0.02	0.004	–	–
Nc1ncnc2c1ncn2[C@@H]1O[C@@H]2COP(=O)(O)O[C@@H]3[C@H](O)[C@@H](COP(=O)(O)O[C@H]2[C@H]1F)O[C@H]3n1cnc2c(=O)[nH]c3nccn3c21 [Example 2, (1R,6R,8R,9R,10R,15R,17R,18R)-8-(6-amino-9H-purin-9-yl)-9-fluoro-3,12,18-trihydroxy-17-{4-oxo-1H,4H,5H-imidazo[2,1-b]purin-1-yl}-2,4,7,11,13,16-hexaoxa-3λ^5,12λ^5-diphosphatricyclo[13.2.1.0^6,10]octadecane-3,12-dione]	–	–	0.03	0.002	23	59
Nc1ncnc2c1ncn2[C@@H]1O[C@@H]2COP(=O)(O)O[C@@H]3[C@H](O)[C@@H](COP(=O)(O)O[C@H]2[C@H]1N)O[C@H]3n1cnc2c(=O)[nH]c3nccn3c21 [Example 3, (1R,6R,8R,9R,10S,15R,17R,18R)-9-amino-8-(6-amino-9H-purin-9-yl)-3,12,18-trihydroxy-17-{4-oxo-1H,4H,5H-imidazo[2,1-b]purin-1-yl}-2,4,7,11,13,16-hexaoxa-3λ^5,12λ^5-diphosphatricyclo[13.2.1.0^6,10]octadecane-3,12-dione]	–	–	1.6	0.3	> 100	> 100
